Format in all cases: in vivo, C57BL/6J mice
A short description of test [1]: Pancreatic cancer associated cachexia: skeletal muscle weight, food intake. To be noted: tumour-bearing mice. The procedure:
FIG. 9. Analysis of obestatin action on skeletal muscle cachexia of C57BL/6J mice (n=4) orthotopically injected with KPC FC1242 cells and treated with vehicle [NaCl, 0.9% (w/v)] or obestatin (500 nmol/Kg/72 h). Tibialis anterior (TA), gastrocnemius (GA), soleus (SOL), extensor digitorum longus (EDL) and diaphragm (DIA) muscles were collected and weighted at day 12 after tumour injection. Results are expressed as the percentage of the weight recovery of the muscle of obestatin-treated mice related to vehicle treated mice (mean±SE).
In vivo experiments were carried out in C57BL/6 mice, obtained from the Central Animal Facility of the University of Santiago de Compostela. Male C57BL/6 mice, weighing 25 g on arrival, were housed four per cage at a constant temperature of 22±2° C. and at a 12 h light/dark cycle. The mice were kept for 5 days for acclimation, with free access to water, and a standard mice chow with a composition of 5.5% fat, 23% protein and 70% carbohydrate (SAFE-Panlab, Spain).
The mice were assigned to the different groups (n=4/group) and treated for five days with: 1) healthy control, 2) tumour+vehicle [NaCl, 0.9% (w/v)], and 3) tumour+obestatin (500 nmol/Kg/72 h). Mice without tumoral cells treatment were utilized as healthy controls.
(§1) Mice were weighed at set times over the 15-day period. The sterilized surgical material was used for the tissue extraction. Pancreases and muscles were carefully removed from each animal minimizing contamination with surrounding tissue or mouse hair. Pancreases and muscles were weighed. The skeletal muscles selected were: tibialis anterior, TA; extensor digitorum longus, EDL; gastrocnemius, GAST; soleus, SOL; and diaphragm, DIA. Pancreases were also measured with a scale (cm) and pictures were taken. • Histology—Pancreas samples for histology were fixed in 4% paraformaldehyde in PBS at room temperature overnight. After fixation, samples were dehydrated and embedded in paraffin blocks. For this study, 3-micron sections were cut from each block and placed on pre-cleaned slides (Thermo Fisher Scientific, Waltham, MA, USA). The sectioned tissue slides were covered with a thin layer of paraffin, stoked at 60° C. for 1 hour and stored protected from light at room temperature to preserve the antigenicity of sections. • Immunoblot—For immunoblot analysis, pancreases were immediately frozen in dry ice and stored at −80° C. until use. Tissues were homogenized using a TissueLyser II tissue homogenizer (Qiagen, Hilden, DE), in 200 μL of RIPA lysis buffer at 30 Hz for 3 min. The lysates were clarified by centrifugation (18,000×g, 15 min, 4° C.), and the protein concentration was quantified by the Quantipro™ BCA assay kit (Sigma-Aldrich, St. Louis, MO, US).

The test system of test [2] is pNF-kB p65(S536), pSTAT3(S727). Nature of the test: Immunoblot of pancreatic tumors: NF-kB and STAT3. The note with it: obestatin 500 nmol/Kg/72 h. Here is the method: FIG. 8. Immunoblot analysis of pNF-kB p65(S536), NF-kB p65, pSTAT3(Y705), pSTAT3(S727), and STAT3 in the pancreatic tumors of C57BL/6J mice (n=4) orthotopically injected with KPC FC1242 cells and treated with vehicle [NaCl, 0.9% (w/v)] or obestatin (500 nmol/Kg/72 h). Results are expressed as fold of control of the non-treated injected mice [control; mean±SE (*, P<0.05)].
as §1, with “The sectioned tissue slides were covered with a thin layer of paraffin, stoked at 60° C. for 1 hour and stored protected from light at room temperature to preserve the antigenicity of sections. • Immunoblot—For immunoblot analysis, pancreases were immediately frozen in dry ice and stored at −80° C. until use. Tissues were homogenized using a TissueLyser II tissue homogenizer (Qiagen, Hilden, DE), in 200 μL of RIPA lysis buffer at 30 Hz for 3 min.” left out, “US). […]” for “US).”
A general note: A western blot detects proteins with antibodies after separation by electrophoresis.

The subject of test [3] is aSMA, HSP47, vimentin, collagen I, fibronectin, ADRP. Put plainly: Immunoblot of pancreatic tumors: fibrosis and CAF markers. To be noted: obestatin 500 nmol/Kg/72 h. The procedure: FIG. 6. Immunoblot analysis of aSMA, vimentin, collagen I, fibronectin, and ADPR in the pancreatic tumors of C57BL/6J mice (n=4) orthotopically injected with KPC FC1242 cells and treated with vehicle [NaCl, 0.9% (w/v)] or obestatin (500 nmol/Kg/72 h). Results are expressed as fold of control of the non-treated injected mice [control; mean±SE (*, P<0.05)].
as §1
Tissues were disrupted and homogenized in ice-cold lysis buffer [50 mM Tris-HCl pH 7.2, 150 mM NaCl, 1 mM EDTA, 1% (v/v) NP-40, 0.25% (w/v) Na-deoxycholate, protease inhibitor cocktail (PIC; 1:100; Sigma Chemical Co., St. Luis, MO, US), phosphatase inhibitor cocktail (PHIC; 1:100; Sigma Chemical Co., St. Luis, MO, US)] with 5 mm stainless steel beads using a TissueLyser (Qiagen, Hilden, DE) at 30 Hz for 3 min. The soluble cell lysates were pre-cleared by centrifuging at 14,000 rpm for 15 min. Supernatants were recovered and the protein was quantified with BCA Protein Assay Kit (Thermo Fisher Scientific, Rockford, IL, US). The same amount of protein for each sample was separated on 7-15% SDS/polyacrylamide gels and transferred to nitrocellulose membranes (Bio-Rad, Hercules, CA, US). The blots were incubated with 5% bovine serum albumin (BSA) in a Tris buffer solution (TBS) containing Tween-20 [TBST; 20 mM Tris-HCl (pH 8.0), 150 mM NaCl, 0.1% (v/v) Tween-20, solution used for all incubation and washing steps] for 1 h. The blots were then incubated with the corresponding primary antibodies and subsequently were incubated with the corresponding peroxidase-conjugated IgG antibody (Table 1). After washing, the signals were visualized using an ECL plus Western Blotting Detection System (Pierce ECL Western Blotting Substrate; Thermo Fisher Scientific, Pierce, Rockford, IL, US). The image processing was performed using the NIH Image Software ImageJ 1.53o (National Institutes of Health, Bethesda, MD, US).

For obestatin, in test [1] (obestatin 500 nmol/Kg/72 h), the “effect on skeletal muscle weight loss, diaphragm (DIA)” value is given as “No effect”; the “reduction of skeletal muscle weight loss (weight recovery vs vehicle treated mice), extensor digitorum longus (EDL)” value is on record as 62.2±8.1%; the “reduction of skeletal muscle weight loss (weight recovery vs vehicle treated mice), gastrocnemius (GAS)” value is listed as 10.6±3.2%; the “reduction of skeletal muscle weight loss (weight recovery vs vehicle treated mice), soleus (SOL)” value is 33.0±7.3%. Further, the “reduction of skeletal muscle weight loss (weight recovery vs vehicle treated mice), tibialis anterior (TA)” value in test [1] (obestatin 500 nmol/Kg/72 h) stood at 30.8±6.1%. Besides, in test [1] (obestatin treatment), the food intake entry is given as “maintaining food intake”. Also, in test [2], the “downregulation of pNF-KB p65(S536)” value was determined as 43.6±9.0% and the “downregulation of pSTAT3(S727)” value stood at 52.3±12.4%. For the same substance, in test [3], the “adipophilin (ADRP) diminished” value is on record as 42.6±8.8%, the augment of vimentin worked out at 111.1±19.1%, the “higher levels of HSP47” value was found to be 49.5±17.7% and the “increased expression of aSMA” value came out at 53.7±7.3%. In test [3], the “inhibition of expression of collagen” value was determined as 60.1±2.9% and the “inhibition of expression of fibronectin” value is recorded as 57.0±7.1%.

For the origin of these results see patent US20260273020A1, “OBESTATIN FOR USE AS ANTINEOPLASTIC AGENT IN THE TREATMENT OF PANCREATIC CANCER” (SERVIZO GALEGO DE SAÚDE, priority 2023, published 2026).
